Reference: PMC7939384, “In crystallo screening for proline analog inhibitors of the proline cycle enzyme PYCR1” (The Journal of Biological Chemistry, 2021)

Key:
Type in all cases: cell-based
[1] = tested on: MCF10A hRAS^V12 breast cancer spheroids; assay: 13C5-glutamine tracer analysis of de novo proline biosynthesis in spheroids; details: 5 mM, 5th day of treatment, 13C5-glutamine incubation, vs untreated
Excerpt: We tested whether NFLP treatment decreases proline biosynthesis in breast cancer cells grown as spheroids. To do so we applied ^13C tracer analysis ([19]), which is a method that can inform about nutrient contribution to biosynthetic pathways, to MCF10A hRAS^V12 breast cancer spheroids grown in DMEM/F12 containing proline. Specifically, we measured the contribution of ^13C5-glutamine to proline, which enables us to conclude on changes in de novo proline biosynthesis.
Figure 7 NFLP targets proline metabolism in breast cancer spheroids.A, abundance of proline M + 0 and M + 5 labeling in MCF10A hRAS^V12 spheroids upon ^13C5-glutamine incubation and treatment without (n = 3) or with NFLP (5 mM; n = 3). Analysis was performed at 5th day of treatment. B, relative abundance of intracellular proline levels in MCF10A hRAS^V12 spheroids upon treatment (5 days) without (n = 6), with THFA (n = 3) or with NFLP (n = 6). C, protein content in MCF10A hRAS^V12 spheroids treated for 5 days without (n = 6), with THFA (n = 3) or with NFLP (n = 6). Bar graphs show mean ± S.D. from biological independent samples and P-values were obtained with Mann-Whitney tests. […]
THFA and NFLP were supplemented (pH neutralized with NaOH) at day zero to the media of MCF10A H-RAS^V12 cells at the concentration of 5 mM. Protein levels were detected with the use of a […] (Thermo Scientific). […]

[2] = tested on: MCF10A hRAS^V12 spheroids; assay: Intracellular proline abundance in spheroids (GC-MS); details: 5 mM, 5 days
[3] = tested on: MCF10A hRAS^V12 spheroids; assay: Spheroid growth based on protein content; details: 5 mM, 5 days

## O=CN1CCC[C@H]1C(=O)O [NFLP, N-formyl L-proline]
[1]
  13C-labeled (M + 5) fraction of proline: decreased
  unlabeled (M + 0) fraction of proline: increased
[2]
  increase of intracellular proline abundance compared with THFA: about 10 fold
  increase of intracellular proline abundance compared with control: ~40 fold
[3]
  reduction of spheroid growth based on protein content compared with control: 50%
